According to patent publication US20170260178A1 (SPERO GYRASE, INC., priority 2012, published 2017):
Values after ≈ are worked out from the molar mass of the structure shown.

Tests used:
[1] = tested on: S. aureus (ATCC 29213); test: Bacterial assay: MIC against S. aureus; format: cell-based, Staphylococcus aureus; conditions: Staphylococcus aureus, ATCC29213, read-out: minimal inhibitory concentration (MIC)
[2] = tested on: S. pyogenes (ATCC 51339); test: Bacterial assay: MIC against S. pyogenes; format: cell-based, Streptococcus pyogenes; conditions: Streptococcus pyogenes, ATCC51339, read-out: minimal inhibitory concentration (MIC)

Row | Compound | MIC [1] | MIC [2]
1 | CCNC(=O)Nc1nc2cc(-c3cnc(C(C)(C)O)nc3)cc(-c3cc(CN4CC[S+]([O-])CC4)ccn3)c2s1 [Compound 188, 1-ethyl-3-[5-[2-(1-hydroxy-1-methyl-ethyl)pyrimidin-5-yl]-7-[4-[(1-oxo-1,4-thiazinan-4-yl)methyl]-2-pyridyl]-1,3-benzothiazol-2-yl]urea] | ≤ 1 µg/mL | ≤ 1 µg/mL
2 | CCNC(=O)Nc1nc2cc(-c3cnc(C(C)(C)O)nc3)cc(-c3nccc(NCC(C)(C)O)n3)c2s1 [Compound 103, 1-ethyl-3-[5-[2-(1-hydroxy-1-methyl-ethyl)pyrimidin-5-yl]-7-[4-[(2-hydroxy-2-methyl-propyl)amino]pyrimidin-2-yl]-1,3-benzothiazol-2-yl]urea] | 2 µg/mL (≈ 3.83 µM) | ≤ 1 µg/mL
3 | CCNC(=O)Nc1nc2cc(-c3cnc(C(C)O)nc3)cc(-c3cc(O)ccn3)c2s1 (stereo not shown) [Compound 90, 1-ethyl-3-[5-[2-(1-hydroxyethyl)pyrimidin-5-yl]-7-(4-hydroxy-2-pyridyl)-1,3-benzothiazol-2-yl]urea] | 16 µg/mL (≈ 36.7 µM) | 2 µg/mL (≈ 4.58 µM)
4 | CCNC(=O)Nc1nc2cc(-c3cnc(C(C)(C)O)nc3)cc(-c3cc(CN4CCN(C)CC4)ccn3)c2s1 [Compound 159, 1-ethyl-3-[5-[2-(1-hydroxy-1-methyl-ethyl)pyrimidin-5-yl]-7-[4-[(4-methylpiperazin-1-yl)methyl]-2-pyridyl]-1,3-benzothiazol-2-yl]urea] | 2 µg/mL (≈ 3.66 µM) | ≤ 1 µg/mL
5 | CCNC(=O)Nc1nc2cc(-c3cnc(C4(O)CN(C(=O)OC(C)(C)C)C4)nc3)cc(-c3ccccn3)c2s1 [Compound 162, tert-butyl 3-[5-[2-(ethylcarbamoylamino)-7-(2-pyridyl)-1,3-benzothiazol-5-yl]pyrimidin-2-yl]-3-hydroxy-azetidine-1-carboxylate] | ≤ 1 µg/mL | ≤ 1 µg/mL
6 | CCNC(=O)Nc1nc2cc(-c3cncc(C(C)O)c3)cc(-c3ccccn3)c2s1 (stereo not shown) [Compound 197, 1-ethyl-3-[5-[5-(1-hydroxyethyl)-3-pyridyl]-7-(2-pyridyl)-1,3-benzothiazol-2-yl]urea] | ≤ 1 µg/mL | ≤ 1 µg/mL
7 | CCNC(=O)Nc1nc2cc(-c3cnc(C(C)(C)O)nc3)cc(-c3cc(C(C)N4CCOCC4)ccn3)c2s1 (stereo not shown) [Compound 33, 1-ethyl-3-[5-[2-(1-hydroxy-1-methyl-ethyl)pyrimidin-5-yl]-7-[4-(1-morpholinoethyl)-2-pyridyl]-1,3-benzothiazol-2-yl]urea] | ≤ 1 µg/mL | ≤ 1 µg/mL
8 | CCNC(=O)Nc1nc2cc(-c3cnc(C(C)(C)O)nc3)cc(-c3ccc(N4CCC(C)(C(=O)O)CC4)cn3)c2s1 [Compound 45, 1-[6-[2-(ethylcarbamoylamino)-5-[2-(1-hydroxy-1-methyl-ethyl)pyrimidin-5-yl]-1,3-benzothiazol-7-yl]-3-pyridyl]-4-methyl-piperidine-4-carboxylic acid] | 2 µg/mL (≈ 3.47 µM) | ≤ 1 µg/mL
9 | CCNC(=O)Nc1nc2cc(-c3cnc(C(C)O)nc3)cc(-c3nccc(N4CC(OC)C4)n3)c2s1 (stereo not shown) [Compound 93, 1-ethyl-3-[5-[2-(1-hydroxyethyl)pyrimidin-5-yl]-7-[4-(3-methoxyazetidin-1-yl)pyrimidin-2-yl]-1,3-benzothiazol-2-yl]urea] | ≤ 1 µg/mL | ≤ 1 µg/mL
10 | CCNC(=O)Nc1nc2cc(-c3cnc(C(C)(C)OC(=O)CCC(=O)O)nc3)cc(-c3ccccn3)c2s1 [Compound 21, 4-[1-[5-[2-(ethylcarbamoylamino)-7-(2-pyridyl)-1,3-benzothiazol-5-yl]pyrimidin-2-yl]-1-methyl-ethoxy]-4-oxo-butanoic acid] | 4 µg/mL (≈ 7.48 µM) | ≤ 1 µg/mL
11 | CCNC(=O)Nc1nc2cc(-c3cnc(C(C)(C)O)nc3)cc(-c3cc(CN4CCC(F)(F)C4)ccn3)c2s1 [Compound 34, 1-[7-[4-[(3,3-difluoropyrrolidin-1-yl)methyl]-2-pyridyl]-5-[2-(1-hydroxy-1-methyl-ethyl)pyrimidin-5-yl]-1,3-benzothiazol-2-yl]-3-ethyl-urea] | ≤ 1 µg/mL | ≤ 1 µg/mL
12 | CCNC(=O)Nc1nc2cc(-c3cnc(C(C)OC(=O)N4CCN(C)CC4)nc3)cc(-c3ccccn3)c2s1 (stereo not shown) [Compound 18, 1-[5-[2-(ethylcarbamoylamino)-7-(2-pyridyl)-1,3-benzothiazol-5-yl]pyrimidin-2-yl]ethyl 4-methylpiperazine-1-carboxylate] | ≤ 1 µg/mL | ≤ 1 µg/mL
13 | CCNC(=O)Nc1nc2cc(-c3cnc(C(C)O)nc3)cc(-c3cc(CN4CCC(C)(O)C4)ccn3)c2s1 (stereo not shown) [Compound 84, 1-ethyl-3-[5-[2-(1-hydroxyethyl)pyrimidin-5-yl]-7-[4-[(3-hydroxy-3-methyl-pyrrolidin-1-yl)methyl]-2-pyridyl]-1,3-benzothiazol-2-yl]urea] | ≤ 1 µg/mL | ≤ 1 µg/mL
14 | CCCNC(=O)Nc1nc2cc(-c3cnc(C(C)(C)O)nc3)cc(-c3ccccn3)c2s1 [Compound 57, 1-[5-[2-(1-hydroxy-1-methyl-ethyl)pyrimidin-5-yl]-7-(2-pyridyl)-1,3-benzothiazol-2-yl]-3-propyl-urea] | ≤ 1 µg/mL | 2 µg/mL (≈ 4.46 µM)
15 | CCNC(=O)Nc1nc2cc(-c3cnc(C(C)(C)O)nc3)c(F)cc2s1 [Compound 177, 1-ethyl-3-[6-fluoro-5-[2-(1-hydroxy-1-methyl-ethyl)pyrimidin-5-yl]-1,3-benzothiazol-2-yl]urea] | ≤ 1 µg/mL | 2 µg/mL (≈ 5.33 µM)
16 | CCNC(=O)Nc1nc2cc(-c3cnc(C(C)(C)O)nc3)cc(-c3cccc(N4CCC(C)(C(=O)O)CC4)n3)c2s1 [Compound 51, 1-[6-[2-(ethylcarbamoylamino)-5-[2-(1-hydroxy-1-methyl-ethyl)pyrimidin-5-yl]-1,3-benzothiazol-7-yl]-2-pyridyl]-4-methyl-piperidine-4-carboxylic acid] | 4 µg/mL (≈ 6.95 µM) | ≤ 1 µg/mL
17 | CCNC(=O)Nc1nc2cc(-c3cnc(C(C)(C)O)nc3)cc(-c3cc(CN4CCS(=O)(=O)CC4)ccn3)c2s1 [Compound 191, 1-[7-[4-[(1,1-dioxo-1,4-thiazinan-4-yl)methyl]-2-pyridyl]-5-[2-(1-hydroxy-1-methyl-ethyl)pyrimidin-5-yl]-1,3-benzothiazol-2-yl]-3-ethyl-urea] | ≤ 1 µg/mL | ≤ 1 µg/mL
18 | CCNC(=O)Nc1nc2cc(-c3cnc(C(C)(C)O)nc3)cc(-c3nccc(NCCO)n3)c2s1 [Compound 85, 1-ethyl-3-[7-[4-(2-hydroxyethylamino)pyrimidin-2-yl]-5-[2-(1-hydroxy-1-methyl-ethyl)pyrimidin-5-yl]-1,3-benzothiazol-2-yl]urea] | 2 µg/mL (≈ 4.04 µM) | ≤ 1 µg/mL
19 | CCNC(=O)Nc1nc2cc(-c3cnc(C(C)(C)O)nc3)cc(-c3cc(NC4CCC(C)(C(=O)O)CC4)ccn3)c2s1 (stereo not shown) [Compound 54, 4-[[2-[2-(ethylcarbamoylamino)-5-[2-(1-hydroxy-1-methyl-ethyl)pyrimidin-5-yl]-1,3-benzothiazol-7-yl]-4-pyridyl]amino]-1-methyl-cyclohexanecarboxylic acid] | ≤ 1 µg/mL | ≤ 1 µg/mL
20 | CCNC(=O)Nc1nc2cc(-c3cnc(C(C)(C)O)nc3)cc(-c3nccc(CN4CCOCC4)n3)c2s1 [Compound 101, 1-ethyl-3-[5-[2-(1-hydroxy-1-methyl-ethyl)pyrimidin-5-yl]-7-[4-(morpholinomethyl)pyrimidin-2-yl]-1,3-benzothiazol-2-yl]urea] | ≤ 1 µg/mL | ≤ 1 µg/mL
